Here are results for three compounds from the NIST ThermoML archive (doi:10.1016/j.jct.2008.11.008).

Each structure is given as a SMILES string. ± gives the expanded uncertainty stated by the source.

The nature of this series: molar enthalpy of vaporization or sublimation. Conditions: 298.15 K; Liquid; Calvet microcalorimetry.
With `COc1cccc(Br)c1` [1-bromo-3-methoxybenzene], the molar enthalpy was 13.9 ± 0.574 kcal/mol.

For the compound `COc1ccccc1Br` [1-bromo-2-methoxybenzene], the molar enthalpy amounted to 14.8 ± 0.621 kcal/mol.

As to `COc1ccc(Br)cc1` [1-bromo-4-methoxybenzene], the molar enthalpy stood at 13.9 ± 0.574 kcal/mol.
